Article PMC12888861, “Antibacterial activity of enmetazobactam against Acinetobacter spp.: a molecular dissection of mechanism of action and resistance determinants” (Antimicrobial Agents and Chemotherapy, 2025)
Values after ≈ are worked out from the molar mass of the structure shown.

Key:
[1] = tested on: carbapenem-susceptible A. baumannii isolates (n = 54); experiment: MIC, broth microdilution (EUCAST), carbapenem-susceptible A. baumannii isolates; type: cell-based, Acinetobacter baumannii
Excerpt: (§1) The bacterial strains used in this study comprised 208 clinical isolates from the Spanish National Acinetobacter spp. 2020 Multicenter Collection, which was previously characterized in detail by our research group, including whole-genome sequencing, phylogenetics studies, clonal dynamics, and resistance mechanisms ([2], [29]). Additionally, a collection of A. baumannii ATCC 17978 transformants coding the blaOXA-23, blaOXA-24/40, blaOXA-51, blaOXA-58, blaOXA-143, and blaOXA-201 genes, previously constructed and described by our group ([30]), was used to determine the activity of enmetazobactam against strains carrying the main CHDLs of A. baumannii.
(§2) The antimicrobial susceptibility of the 208 Acinetobacter spp. isolates was assessed using the broth microdilution method, as described in the European Committee on Antimicrobial Susceptibility Testing (EUCAST) v.15 guidelines (http://www.eucast.org/clinical_breakpoints). […] MICs for enmetazobactam alone were assessed as well. […] Subsequently, MIC testing was also conducted with a collection of A. baumannii ATCC 17978 transformants expressing clinically relevant OXA-like carbapenemase genes.
(§3) The A. baumannii ATCC 19606 strain was used as the reference strain in all susceptibility experiments, in duplicate assays. Antibiotics were purchased from Sigma-Aldrich, except enmetazobactam and durlobactam, which were obtained from Advanz Pharma and MedChemExpress, respectively.

[2] = tested on: carbapenem-resistant A. baumannii (CRAB) isolates (n = 67); experiment: MIC, broth microdilution (EUCAST), carbapenem-resistant A. baumannii isolates; type: cell-based, Acinetobacter baumannii; settings: for MIC: Acinetobacter baumannii, MBC set
Excerpt: as §1, §2, §3

[3] = Acinetobacter baumannii, carbapenem-susceptible A. baumannii isolates (n = 54), ETZ fixed 8 mg/L in combinations

Compound: CC1(C)[C@H](C(=O)O)N2C(=O)C[C@H]2S1(=O)=O [sulbactam]
- MIC distribution 0.12 [1]: 0
- MIC distribution 0.25 [1]: 0
- MIC distribution 0.5 [1]: 27.8
- MIC distribution 1 [1]: 79.6
- MIC distribution 2 [1]: 96.3
- MIC distribution 4 [1]: 100
- MIC distribution 8 [1]: 100
- MIC distribution 16 [1]: 100
- MIC distribution ≤0.06 [1]: 0
- MIC distribution ≥32 [1]: 100
- MIC ([1]; Acinetobacter baumannii, MBC set, isolate Ab1, A. baumannii ST 164, ADC-6, OXA-91, non-CHDLs-producing): 0.5 µg/mL (≈ 2.14 µM)
- MIC ([1]; Acinetobacter baumannii, MBC set, isolate Ab11, A. baumannii ST 239, ADC-2, OXA-51, non-CHDLs-producing): 1 µg/mL (≈ 4.29 µM)
- MIC ([1]; Acinetobacter baumannii, MBC set, isolate Ab34, A. baumannii ST 2182, ADC-2, OXA-130, non-CHDLs-producing): 0.5 µg/mL (≈ 2.14 µM)
- MIC ([1]; Acinetobacter baumannii, isolate Ab1, ST 164, ADC-6, OXA-91, in combinations ETZ fixed at 8 mg/L): 1 µg/mL
- MIC ([1]; Acinetobacter baumannii, isolate Ab11, ST 239, ADC-2, OXA-51, in combinations ETZ fixed at 8 mg/L): 1 µg/mL
- MIC ([1]; Acinetobacter baumannii, isolate Ab34, ST 2182, ADC-2, OXA-130, in combinations ETZ fixed at 8 mg/L): 0.5 µg/mL
- MIC ([1]; Acinetobacter baumannii, isolate Ab38, ST 866, ADC-2, OXA-385, in combinations ETZ fixed at 8 mg/L): 1 µg/mL
- MIC ([1]; Acinetobacter baumannii, isolate Ab40, ST 2176, ADC-2, OXA-64, in combinations ETZ fixed at 8 mg/L): 1 µg/mL
- MIC ([1]; Acinetobacter baumannii, isolate Ab50, ST 2176, ADC-2, OXA-64, in combinations ETZ fixed at 8 mg/L): 1 µg/mL
- MIC ([1]; Acinetobacter baumannii, isolate Ab57, ST 1470, ADC-58, OXA-106, in combinations ETZ fixed at 8 mg/L): 1 µg/mL
- MIC ([1]; Acinetobacter baumannii, isolate Ab58, ST 6, ADC-2, OXA-94, in combinations ETZ fixed at 8 mg/L): 2 µg/mL
- MIC ([1]; Acinetobacter baumannii, isolate Ab61, ST 1639, ADC-7, OXA-64, in combinations ETZ fixed at 8 mg/L): 2 µg/mL
- MIC ([1]; Acinetobacter baumannii, isolate Ab62, ST 265, ADC-2, OXA-91, in combinations ETZ fixed at 8 mg/L): 1 µg/mL
- MIC ([1]; Acinetobacter baumannii, isolate Ab67, ST 1, ADC-11, OXA-69, in combinations ETZ fixed at 8 mg/L): 1 µg/mL
- MIC ([1]; Acinetobacter baumannii, isolate Ab79, ST 106, ADC-11, OXA-78, in combinations ETZ fixed at 8 mg/L): 1 µg/mL
- MIC ([1]; Acinetobacter baumannii, isolate Ab80, ST 2182, ADC-6, OXA-208, in combinations ETZ fixed at 8 mg/L): 4 µg/mL
- MIC ([1]; Acinetobacter baumannii, isolate Ab81, ST 25, ADC-79, OXA-64, in combinations ETZ fixed at 8 mg/L): 2 µg/mL
- MIC ([1]; Acinetobacter baumannii, isolate Ab93, ST 25, ADC-79, OXA-64, in combinations ETZ fixed at 8 mg/L): 1 µg/mL
- MIC ([1]; Acinetobacter baumannii, isolate Ab95, ST 582, ADC-5, OXA-317, in combinations ETZ fixed at 8 mg/L): 1 µg/mL
- MIC ([1]; Acinetobacter baumannii, isolate Ab96, ST 582, ADC-5, OXA-317, in combinations ETZ fixed at 8 mg/L): 1 µg/mL
- MIC ([1]; Acinetobacter baumannii, isolate Ab100, ST 145, ADC-58, OXA-343, in combinations ETZ fixed at 8 mg/L): 1 µg/mL
- MIC ([1]; Acinetobacter baumannii, isolate Ab110, ST 1623, ADC-3, OXA-70, in combinations ETZ fixed at 8 mg/L): 1 µg/mL
- MIC ([1]; Acinetobacter baumannii, isolate Ab112, ST 193, ADC-like, OXA-120, in combinations ETZ fixed at 8 mg/L): 0.5 µg/mL
- MIC ([1]; Acinetobacter baumannii, isolate Ab124, ST 2176, ADC-2, OXA-64, in combinations ETZ fixed at 8 mg/L): 1 µg/mL
- MIC ([1]; Acinetobacter baumannii, isolate Ab127, ST 2176, ADC-2, OXA-64, in combinations ETZ fixed at 8 mg/L): 2 µg/mL
- MIC ([1]; Acinetobacter baumannii, isolate Ab128, ST 2176, ADC-2, OXA-64, in combinations ETZ fixed at 8 mg/L): 1 µg/mL
- MIC ([1]; Acinetobacter baumannii, isolate Ab130, ST 32, ADC-79, OXA-100, in combinations ETZ fixed at 8 mg/L): 2 µg/mL
- MIC ([1]; Acinetobacter baumannii, isolate Ab131, ST 687, ADC-like, OXA-208, in combinations ETZ fixed at 8 mg/L): 1 µg/mL
- MIC ([1]; Acinetobacter baumannii, isolate Ab132, ST 1112, ADC-79, OXA-89, in combinations ETZ fixed at 8 mg/L): 2 µg/mL
- MIC ([1]; Acinetobacter baumannii, isolate Ab136, ST 2183, ADC-like, OXA-66, in combinations ETZ fixed at 8 mg/L): 1 µg/mL
- MIC ([1]; Acinetobacter baumannii, isolate Ab139, ST 54, ADC-like, OXA-365, in combinations ETZ fixed at 8 mg/L): 1 µg/mL
- MIC ([1]; Acinetobacter baumannii, isolate Ab142, ST 1, ADC-like, OXA-69, in combinations ETZ fixed at 8 mg/L): 4 µg/mL
- MIC ([1]; Acinetobacter baumannii, isolate Ab143, ST 1328, ADC-76, OXA-408, in combinations ETZ fixed at 8 mg/L): 2 µg/mL
- MIC ([1]; Acinetobacter baumannii, isolate Ab149, ST 1112, ADC-6, OXA-407, in combinations ETZ fixed at 8 mg/L): 1 µg/mL
- MIC ([1]; Acinetobacter baumannii, isolate Ab150, ST 2184, ADC-like, OXA-64, in combinations ETZ fixed at 8 mg/L): 2 µg/mL
- MIC ([1]; Acinetobacter baumannii, isolate Ab152, ST 132, ADC-2, OXA-120, in combinations ETZ fixed at 8 mg/L): 1 µg/mL
- MIC ([1]; Acinetobacter baumannii, isolate Ab158, ST 2034, ADC-2, OXA-217, in combinations ETZ fixed at 8 mg/L): 0.5 µg/mL
- MIC ([1]; Acinetobacter baumannii, isolate Ab163, ST 132, ADC-2, OXA-120, in combinations ETZ fixed at 8 mg/L): 0.5 µg/mL
- MIC ([1]; Acinetobacter baumannii, isolate Ab167, ST 1623, ADC-like, OXA-345, in combinations ETZ fixed at 8 mg/L): 0.5 µg/mL
- MIC ([1]; Acinetobacter baumannii, isolate Ab168, ST 1470, ADC-75, OXA-402, in combinations ETZ fixed at 8 mg/L): 0.5 µg/mL
- MIC ([1]; Acinetobacter baumannii, isolate Ab170, ST 2110, ADC-4, OXA-338, in combinations ETZ fixed at 8 mg/L): 1 µg/mL
- MIC ([1]; Acinetobacter baumannii, isolate Ab172, ST 2185, ADC-5, OXA-217, in combinations ETZ fixed at 8 mg/L): 2 µg/mL
- MIC ([1]; Acinetobacter baumannii, isolate Ab185, ST 2, ADC-26, OXA-66, in combinations ETZ fixed at 8 mg/L): 1 µg/mL
- MIC ([1]; Acinetobacter baumannii, isolate Ab187, ST 105, ADC-2, OXA-430, in combinations ETZ fixed at 8 mg/L): 1 µg/mL
- MIC ([1]; Acinetobacter baumannii, isolate Ab188, ST 203, ADC-6, OXA-217, PDC-1, in combinations ETZ fixed at 8 mg/L): 1 µg/mL
- MIC ([1]; Acinetobacter baumannii, isolate Ab189, ST 1405, ADC-3, OXA-120, in combinations ETZ fixed at 8 mg/L): 0.5 µg/mL
- MIC ([1]; Acinetobacter baumannii, isolate Ab190, ST 2186, ADC-6, OXA-413, in combinations ETZ fixed at 8 mg/L): 0.5 µg/mL
- MIC ([1]; Acinetobacter baumannii, isolate Ab193, ST 164, ADC-6, OXA-91, in combinations ETZ fixed at 8 mg/L): 0.5 µg/mL
- MIC ([1]; Acinetobacter baumannii, isolate Ab195, ST 1, ADC-11, OXA-69, in combinations ETZ fixed at 8 mg/L): 1 µg/mL
- MIC ([1]; Acinetobacter baumannii, isolate Ab200, ST 1336, ADC-2, OXA-51, in combinations ETZ fixed at 8 mg/L): 0.5 µg/mL
- MIC ([1]; Acinetobacter baumannii, isolate Ab202, ST 1, ADC-11, OXA-69, in combinations ETZ fixed at 8 mg/L): 1 µg/mL
- MIC ([1]; Acinetobacter baumannii, isolate Ab203, ST 221, ADC-6, OXA-88, in combinations ETZ fixed at 8 mg/L): 0.5 µg/mL
- MIC ([1]; Acinetobacter baumannii, isolate Ab206, ST 2187, ADC-58, OXA-69, in combinations ETZ fixed at 8 mg/L): 0.5 µg/mL
- MIC ([1]; Acinetobacter baumannii, isolate Ab209, in combinations ETZ fixed at 8 mg/L): 0.5 µg/mL
- MIC ([1]; Acinetobacter baumannii, isolate Ab213, in combinations ETZ fixed at 8 mg/L): 0.5 µg/mL
- MIC ([1]; Acinetobacter baumannii, isolate Ab218, in combinations ETZ fixed at 8 mg/L): 1 µg/mL
- MIC ([1]; Acinetobacter baumannii, isolate Ab220, in combinations ETZ fixed at 8 mg/L): 0.5 µg/mL
- MIC50 [1, 3]: 1 µg/mL
- MIC90 [1, 3]: 2 µg/mL
- MIC distribution ≥64 [2]: 100%
- MIC ([2]; isolate Ab4, A. baumannii ST 2, ADC-30, OXA-66, ISAba1-OXA-23): 16 µg/mL (≈ 68.6 µM)
- MIC ([2]; isolate Ab6, A. baumannii ST 2, ADC-30, OXA-66, ISAba1-OXA-23, TEM-12): 16 µg/mL (≈ 68.6 µM)
- MIC ([2]; isolate Ab9, A. baumannii ST 2, ADC-30, OXA-66, OXA-23, TEM-12): 4 µg/mL (≈ 17.1 µM)
